Experimental data taken from publication PMC3781849 (Journal of Clinical Pharmacology, 2013).
Several values for one entry are separate records, joined by “and”; a condition that tells them apart may be missing. Equal entries are not always repeated. Entries after “also recorded” stand apart in the source; their conditions may differ. Where two headings read alike, the source gives them in different places.

Experiments:
[1] = earlier studies; cited from earlier work
[2] = dasatinib + ketoconazole 200 mg twice daily; cited from earlier work
[3] = bosutinib + ketoconazole 400 mg once daily; cited from earlier work
[4] = system: cells expressing all BCR-ABL mutants tested, including the T315I gatekeeper mutant; conditions: preclinical; includes T315I; cited from earlier work
[5] = cited from earlier work
[6] = rats; preclinical studies; cited from earlier work
[7] = monkeys; preclinical studies; cited from earlier work
[8] = single 45-mg oral dose of 14C-labeled ponatinib, healthy volunteers; cited from earlier work
[9] = Safety and tolerability in the ponatinib ± ketoconazole crossover study
[10] = for Cmax: geometric mean (%CV, n)
[11] = nilotinib + ketoconazole 400 mg once daily; cited from earlier work
[12] = ponatinib alone, 2 of 23 subjects
[13] = ponatinib with ketoconazole, 2 of 23 subjects
[14] = ponatinib + ketoconazole vs ponatinib alone
[15] = ponatinib + ketoconazole vs ponatinib alone, from estimated mean ratio

For `Cc1ccc(C(=O)Nc2ccc(CN3CCNCC3)c(C(F)(F)F)c2)cc1C#Cc1cnc2cccnn12` [AP24567], the “Potency, less potent than ponatinib” value [1] is given as 4 fold.

For `Cc1nc(Nc2ncc(C(=O)Nc3c(C)cccc3Cl)s2)cc(N2CCN(CCO)CC2)n1` [dasatinib], the “Increase in AUC” value [2] is listed as 4.8 fold, the “Increase in Cmax” value [2] is listed as 3.6 fold and the “Prolongation of t1/2” value [2] is listed as 5.4 h.

In the case of `Cc1ccc(C(=O)O)cc1C#Cc1cnc2cccnn12` [AP24600], the Pharmacological activity [1] is given as “pharmacologically inactive”.

In the case of `COc1cc(Nc2c(C#N)cnc3cc(OCCCN4CCN(C)CC4)c(OC)cc23)c(Cl)cc1Cl` [bosutinib], the “Decrease in apparent clearance” value [3] is given as 9 fold, the “Increase in AUC0–t” value [3] is given as 7.6 fold and the “Increase in AUC0–∞” value [3] is given as 8.6 fold. The “Increase in Cmax” value [3] was 5.2 fold and the “Prolongation of t1/2” value [3] was 22.8 h.

For `Cc1ccc(C(=O)Nc2ccc(CN3CCN(C)CC3)c(C(F)(F)F)c2)cc1C#Cc1cnc2cccnn12` [Ponatinib], the “Concentration sufficient to inhibit viability of cells expressing all BCR-ABL mutants tested and to suppress emergence of mutant clones” value [4] is given as 40 nM, the “Steady-state trough plasma concentration” value ([5]; daily doses of 30 mg) is given as greater than 40 nM and the “Accumulation of AUC from first dose to steady-state” value ([5]; once-daily ponatinib 45 mg) is given as “approximately 1.5 fold”. For the same compound, the “Steady-state trough concentration, geometric mean” value ([5]; once-daily ponatinib 45 mg) was 64 nM and 34.2 ng/mL, the “Dose proportionality of exposure (Cmax and AUC)” value ([5]; patients, initial dose and steady-state, doses 2 to 60 mg) was “approximately dose-proportional” and the “Time of maximum plasma levels” value ([5]; patients, oral once-daily ponatinib, postdose) was “approximately 4 hours”. The Elimination half-life ([5]; ponatinib 45 mg, patients) was “approximately 22 hours”, the “Relation to maximum tolerated dose” value ([5]; ponatinib 60 mg daily, phase 1 study) was “exceeded the maximum tolerated dose” and the Absolute oral bioavailability [6] was 54%. The Absolute oral bioavailability [7] was 20%, the “Total radioactivity recovered in feces” value [8] was 87% and the “Total radioactivity recovered in urine” value [8] was 5%. The “Serious AEs” value ([9]; both regimens) was “no serious AEs”, the “Subjects with at least one drug-related AE” value ([9]; both regimens) was “Nine” and the “Vital sign, ECG, physical examination findings” value ([9]; both regimens) was “No treatment-related or clinically significant vital sign, ECG, or physical examination findings”. The “Subjects with at least one treatment-emergent adverse event” value ([9]; of 23 subjects, both regimens, all mild) was “Eleven”, the Tolerability ([9]; ponatinib 15 mg, both alone and in combination with ketoconazole) was “generally well tolerated” and the “Increased lipase (TEAE)” value [9, 12] was 8.7%. The “Somnolence (TEAE)” value [9, 12] was 8.7%, the “Headache (TEAE)” value [9, 13] was 8.7% and the “Somnolence (TEAE)” value [9, 13] was 8.7%. The AUC(0-inf) ([10]; human, in vivo, 15 mg) was 472 ng·h/mL, the AUC(0-t) ([10]; human, in vivo, 15 mg) was 414 ng·h/mL and the half-life ([10]; human, in vivo, 15 mg) was 35.3 h. The Cmax ([10]; human, in vivo, 15 mg, Cmax, ponatinib 15 mg alone) was 16.1 ng/mL, the Tmax ([10]; human, in vivo, po, 15 mg) was roughly 6 h and the Cmax ([10]; ponatinib 15 mg + ketoconazole 400 mg daily) was 23.6 (30.7, 22) ng/mL. For the same compound, the Cmax ([10]; ponatinib 15 mg alone) was 16.1 (36.0, 22) ng/mL, the “Effect of ketoconazole on t1/2 / terminal elimination” value [10, 14] was “not essentially affected; also recorded: did not affect” and the “Effect of ketoconazole on tmax” value [10, 14] was “not affected; also recorded: did not affect”. The “Increase in exposure, Cmax” value [10, 14] was 47%, the “Increase in exposure, AUC0–t” value [10, 15] was 70% and the “Increase in exposure, AUC0–∞” value [10, 15] was 78%. For the same compound, the “Time at which mean plasma concentrations reached a maximum” value ([10]; single oral dose of 15 mg, independent of ketoconazole coadministration) was 5 to 6 h.

In the case of `Cc1cn(-c2cc(NC(=O)c3ccc(C)c(Nc4nccc(-c5cccnc5)n4)c3)cc(C(F)(F)F)c2)cn1` [nilotinib], the “Decrease in apparent clearance” value [11] is given as 2.5 fold, the “Increase in AUC0–t” value [11] is given as 1.8 fold and the “Increase in AUC0–∞” value [11] is given as 3 fold. For the same compound, the “Increase in t1/2” value [11] was 17.5 h.
